As a reminder, the IC50 is the concentration needed to halve the response being measured. What is called melting point is the temperature, or range, at which the solid turns liquid.

The values below come from article PMC4462585, “Synthesis and Biological Evaluation of 3-Alkyl-1,5-Diaryl-1H-Pyrazoles as Rigid Analogues of Combretastatin A-4 with Potent Antiproliferative Activity” (PLoS ONE, 2015).

Data set [1] deals with pulmonary adenocarcinoma cell line A549. Briefly: MTT antiproliferative assay, A549. The format is cell-based. The conditions noted are these: Homo sapiens, 72 h drug exposure, triplicate, read-out: Antiproliferative activity (IC50 ± SD) A549. From the text: (§1) Pulmonary adenocarcinoma cell lines (A549) and gastric adenocarcinoma cell lines (SGC-7901) were provided as gifts (purchased from the Cell Resource Center of Shanghai Institutes for Biological Sciences) from the China-Japan Research Institute of Medical and Pharmaceutical Sciences, Shenyang Pharmaceutical University. Fibrosarcoma cell lines (HT-1080) were purchased from the Cell Resource Center of Shanghai Institutes for Biological Sciences. All cells were maintained in DMEM containing 1% antibiotics (100 units of penicillin and […] per mL in 0.9% normal saline) and 10% foetal bovine serum in a humidified atmosphere containing 5% CO2 at 37°C.
(§2) Antiproliferative activities of CA-4 and the target compounds were measured using a colourimetric assay using 3-(4,5-dimethylthiazol-2yl-)-2,5-diphenyltetrazolium bromide (MTT). Approximately 3 × 10^4 cells were seeded in a 96-well plate. After 24 h of incubation at 37°C, cells were exposed to compounds of differing concentrations (0.0008 μg/mL, 0.004 μg/mL, 0.02 μg/mL, 0.10 μg/mL, 0.50 μg/mL, 2.5 μg/mL, 12.5 μg/mL, 62.5 μg/mL) for 72 h. After treatment, cells were washed with 1X PBS followed by addition of 100 μL of 0.05% MTT reagent to each well, followed by incubation for 4 h at 37°C. After incubation, the supernatant from each well was carefully removed and the formazan crystals were dissolved in 100 μL of DMSO. The colour density was measured spectrophotometrically at 490 nm using a microplate reader (SpectraMax Plus384, Molecular Devices Corp., USA). The percentage of cell growth inhibition was calculated as follow: inhibition ratio % = (Acontrol—Atreated) / Acontrol × 100%. The 50% inhibitory concentration (IC50) was defined as the concentration that reduced the absorbance of the untreated wells by 50% of the vehicle in the MTT assay.
For orientation: Formazan colour is commonly taken as a measure of viable cells.

Data set [2] deals with gastric adenocarcinoma cell line SGC-7901. Briefly: MTT antiproliferative assay, SGC-7901. The format is cell-based. Particulars: Homo sapiens, 72 h drug exposure, triplicate, read-out: Antiproliferative activity (IC50 ± SD) SGC-7901.
Excerpt: as §1, §2

Data set [3] has as its system three human cancer cell lines (SGC-7901, A549 and HT-1080). Briefly: MTT antiproliferative assay, three human cancer cell lines. The format is cell-based. Particulars: HT-1080, SGC-7901, A549, 72 h, read-out: Antiproliferative IC50 values, range over the three cancer cell lines.
Excerpt: as §1
Antiproliferative activities of CA-4 and the target compounds were measured using a colourimetric assay using 3-(4,5-dimethylthiazol-2yl-)-2,5-diphenyltetrazolium bromide (MTT). Approximately 3 × 10^4 cells were seeded in a 96-well plate. After 24 h of incubation at 37°C, cells were exposed to compounds of differing concentrations (0.0008 μg/mL, 0.004 μg/mL, 0.02 μg/mL, 0.10 μg/mL, 0.50 μg/mL, 2.5 μg/mL, 12.5 μg/mL, 62.5 μg/mL) for 72 h. […] The colour density was measured spectrophotometrically at 490 nm using a microplate reader (SpectraMax Plus384, Molecular Devices Corp., USA). The percentage of cell growth inhibition was calculated as follow: inhibition ratio % = (Acontrol—Atreated) / Acontrol × 100%. […]

Data set [4] deals with fibrosarcoma cell line HT-1080. In words: MTT antiproliferative assay, HT-1080. The format is cell-based. The conditions noted are these: Homo sapiens, 72 h drug exposure, triplicate, read-out: Antiproliferative activity (IC50 ± SD) HT-1080.
Excerpt: as §1, §2

For data set [5], the system named is microtubule network in SGC-7901 cells. In words: Immunostaining of tubulin assembly in SGC-7901 cells. The conditions noted are these: 2-fold IC50 concentration (7k 0.14 μM), 48 h. The format is cell-based, human. As for the experimental part: Microtubules were labelled using the indirect immuno-fluorescence method and were analysed by fluorescence microscopy. […] SGC-7901 cells were treated with 7k (0.14 μM) for 48 h (scale bar = 10 μm). The left, middle and right panels represent the tubulin assembly stained with FITC, DAPI and a merge of the corresponding left and middle panels, respectively. Images were taken using a confocal microscope. Immunostaining was performed to detect microtubule-associated tubulin protein after exposure to CA-4 and compound 7k. The SGC-7901 and HT-1080 cells were seeded at a density of 1 × 10^4 per well on a 24-well plate and grown for 24 h. […] The control and treated cells were fixed in acetone:methanol (1:1) for 30 min at -20°C, washed with 1X PBS, incubated for 30 min in 1X PBS containing 2% BSA, and then 0.1% Triton X-100. The primary tubulin antibody (Cell Signaling Technology, MA, USA) was diluted (1:100) with 2% BSA in 1X PBS and incubated overnight at 4°C. The cells were washed with 1X PBS to remove unbound primary antibody, and then cells were incubated for 3 h at 37°C with FITC-conjugated anti-mouse secondary antibody diluted 1:1000 with 2% BSA in PBS.

Data set [6] has as its system microtubule network in HT-1080 cells. Briefly: Immunostaining of tubulin assembly in HT-1080 cells. The format is cell-based, human. Particulars: 2-fold IC50 concentration (7k 0.18 μM), 48 h. Here is the method:
Microtubules were labelled using the indirect immuno-fluorescence method and were analysed by fluorescence microscopy. […] HT-1080 cells were treated with 7k (0.18 μM) for 48 h (scale bar = 10 μm). The left, middle and right panels represent tubulin assembly stained with FITC, DAPI and a merge of the corresponding left and middle panels, respectively. Images were taken using a confocal microscope. Immunostaining was performed to detect microtubule-associated tubulin protein after exposure to CA-4 and compound 7k. The SGC-7901 and HT-1080 cells were seeded at a density of 1 × 10^4 per well on a 24-well plate and grown for 24 h. […] The control and treated cells were fixed in acetone:methanol (1:1) for 30 min at -20°C, washed with 1X PBS, incubated for 30 min in 1X PBS containing 2% BSA, and then 0.1% Triton X-100. The primary tubulin antibody (Cell Signaling Technology, MA, USA) was diluted (1:100) with 2% BSA in 1X PBS and incubated overnight at 4°C. The cells were washed with 1X PBS to remove unbound primary antibody, and then cells were incubated for 3 h at 37°C with FITC-conjugated anti-mouse secondary antibody diluted 1:1000 with 2% BSA in PBS.

A further data set concerns purified bovine tubulin. In words: Tubulin assembly (polymerization) assay, cell-free, fluorescence-based. The format is biochemical. Particulars: 37°C, IC50 calculated at 80 min, three experiments, read-out: Inhibition of tubulin polymerization IC50. Here is the method:
Fig 5 Dose-response effects of CA-4 (1), 7i and 7k on the inhibition of tubulin polymerization. Purified bovine tubulin and GTP were mixed in a 96-well plate. The reaction was initiated by warming the solution from 4°C to 37°C. DMSO was used as a vehicle control. The effect on the assembly of tubulin was monitored using a plate reader at 1 min intervals for 90 min at 37°C.
The effect of compounds 7i and 7k on the polymerization of purified brain tubulin was determined employing a fluorescence-based tubulin polymerization assay kit (Cat. #BK011P, Cytoskeleton, Inc., USA) according to the manufacturer’s protocol. Tubulin was re-suspended in ice-cold G-PEM buffer (80 mM PIPES, 2 mM MgCl2, 0.5 mM EGTA, 1 mM GTP, 20% (v/v) glycerol) and added to wells on a 96-well plate containing the designated concentration of drugs or vehicle. Samples were mixed well, and tubulin assembly was monitored (emission wavelength: 450 nm; excitation wavelength: 360 nm) at 1 min intervals for 90 min at 37°C using a plate reader ([…]). IC50 values were calculated at 80 min using SPSS software in three experiments.

As for `COc1ccc(/C=C\c2cc(OC)c(OC)c(OC)c2)cc1O` [Compound 1, Combretastatin A-4], the concentration for half-maximal inhibition (IC50) was 35 ± 9 nM in data set [1]; 16 ± 10 nM in data set [2]; 16 to 35 nM in data set [3]; 23 ± 12 nM in data set [4]; 900 nM in the data set with purified bovine tubulin. Further, the “Effect on microtubule network (immunofluorescence), SGC-7901” value in data set [5] is reported as “disruption of the tubulin network”. In addition, in data set [6], the “Effect on microtubule network (immunofluorescence), HT-1080” value is “disruption of the tubulin network”.
As to `COc1ccc(-c2cc(C)nn2-c2cc(OC)c(OC)c(OC)c2)cc1N` [Compound 7k, 3-Methyl-5-(3-amino-4-methoxyphenyl)-1-(3,4,5-trimethoxyphenyl)-1H-pyrazole], the melting point lay within 129 to 130 °C. Also, in data set [1], the IC50 stood at 96 ± 11 nM. Also, the IC50 in data set [2] amounted to 76 ± 9 nM. In addition, the IC50 in data set [3] lay in the range of 76 to 120 nM. The IC50 in data set [4] is 122 ± 13 nM. For the same compound, the “Effect on microtubule network (immunofluorescence), SGC-7901” value in data set [5] is on record as “disruption of the tubulin network”. For the same compound, in data set [6], the “Effect on microtubule network (immunofluorescence), HT-1080” value is given as “disruption of the tubulin network”. Besides, in the data set with purified bovine tubulin, the IC50 was 1700 nM.
